# Assay results taken from publication PMC11971462, “Generation and validation of a novel multitarget small molecule in glioblastoma” (Cell Death & Disease, 2025).
# Several values for one entry are separate records, joined by “and”; a condition that tells them apart may be missing. Equal values may be shown once.
# Legend:
# [1] = system: U87-MG cells; assay: Subcutaneous U87-MG tumor growth, single treatment; type: in vivo, athymic nude-Foxn1nu mice; settings: day 34, 100 µM intratumoral
# Method: For tumor growth experiments, 5 × 10^5 U87-MG cells were subcutaneously injected into two bottom flanks of athymic nude-Foxn1^nu mice, and once tumors reached a size of 25-50 mm^3, mice were sorted into groups taking into account gender and tumor size. Afterwards, mice were intratumorally treated with vehicle, SAHA 100 µM or DDI199 100 µM following a schedule of 5 days on and 2 days off. In combined treatment, mice were treated intraperitoneally with 0.5 mg/Kg of TMZ for 5 days and intratumorally following a schedule of 5 days on and 2 days off with vehicle, SAHA 100 µM or DDI199 100 µM. After 4 weeks of treatment, some mice were kept for washout experiment, while the rest were sacrificed and tumors were extracted for immunohistochemistry and to disaggregate for reinjection and oncosphere formation studies. For reinjection assays, 1.5 × 10^5 cells were subcutaneously injected and tumor size was periodically measured. Once tumors reached end-point criteria, they were extracted for immunohistochemical analysis. An external caliper was used for tumor size measurement and the tumor volume was estimated using the formula V = L · W^2 · 0.5 (where L is tumor length and W is the tumor width).
# [2] = system: GNS166 cells; assay: Immunofluorescence of pH3, Cleaved Caspase 3, Ki67, PARP1; type: cell-based, human; settings: for pH3-positive cells: control 3%
# Method: (§1) Immunofluorescence assays were performed following standard procedures. Cells were seeded at a density of 2 × 10^4 cells/well in 8-well immunofluorescence chambers (LabTek Thermo) and incubated overnight before treating with increasing concentrations of DDI199. After 48 h, cells were fixed with 4% PFA. Primary antibodies against phosphohistone H3 (pH3) (ab14955, abcam), Cleaved Caspase 3 (AF385, R&D Systems), Ki67 (ab15580, abcam) and PARP1 (ab32064, abcam) were used. Secondary antibodies were Alexa Fluor anti-mouse (A21422, Invitrogen) and Alexa Fluor anti-rabbit (A31572, Invitrogen), and chromatin was stained with DAPI (D9541, Sigma-Aldrich). Axio Observer 7 epifluorescence microscope was used to take pictures, which were later quantified in Qupath.
# [3] = target: T1, recombinant hMAO-A (Homo sapiens, UniProt P21397); assay: MAO-A inhibition (Ampliflu Red/peroxidase, tyramine); type: biochemical; settings: 10 µM compound; read-out: MAO-A inhibition percentage
# T1 construct: purchased Sigma-Aldrich
# Method: (§2) The inhibitory capacity of DDI199 on HDACs was studied as previously described. The capacity of DDI199 to inhibit MAOs was studied by mimicking the reaction occurring in cells. Briefly, inhibitor solution containing 10 µM of DDI199 or reference compound was incubated for 30 minutes at 37 °C together with the enzyme solution, containing either recombinant hMAO-A (Sigma-Aldrich) at 0.5 U/mL or hMAO-B (Sigma-Aldrich) at 1.5 U/mL. 200 U/mL horseradish peroxidase (Sigma-Aldrich), 20 mM Ampliflu Red (Sigma-Aldrich) and 100 mM tyramine hydrochloride (Sigma-Aldrich) were then added and absorbance at 570 nm was measured every 5 minutes for 30 minutes. Percentage of inhibition was estimated from these values.
# [4] = target: T2, recombinant hMAO-B (Homo sapiens, UniProt P27338); assay: biochemical
# T2 construct: purchased Sigma-Aldrich
# Method: as §2
# [5] = system: GNS166 cells; assay: q-RTPCR of selected DEGs; type: cell-based, human; settings: GNS166 treated versus non-treated
# Method: Total RNA was extracted using Trizol (Life Thechnologies). Reverse transcription was then performed with the Maxima First Strand cDNA Synthesis Kit (ThermoFisher), following manufacturer’s guidelines. Quantitative real-time PCR was carried out in a CFX384 Thermal Cycler (BioRad) by Absolute SYBR Green mix (ThermoFisher). GAPDH was used as housekeeping gene for the correction of variations on initial cDNA levels, and relative gene expression was determined using the 2^-ΔΔCt formula.
# [6] = system: patient-derived GSCs; assay: MTT cell viability, summary for patient-derived GSCs; type: cell-based; settings: Homo sapiens, 72 h, summary statement
# Method: (§3) MTT assay was used to study cell viability. For that, cells were seeded at a density of 1.5 × 10^3 cells/well in 96-well plates, incubated overnight and then treated with increasing concentrations of DDI199. After 72 h of treatment, MTT absorbance was measured at 570 nm. GraphPad Prism software was used to analyze results and calculate IC50 values.
# [7] = system: GNS179 cells; assay: Immunofluorescence of pH3, Cleaved Caspase 3; type: cell-based, human; settings: for pH3-positive cells: control […]
# Method: as §1
# [8] = system: U87-MG and U251-MG cells; assay: Immunofluorescence of pH3 and Cleaved Caspase-3; type: cell-based, human; settings: U87-MG and U251-MG, 1, 5 and 10 μM
# Method: as §1
# [9] = system: gastric, pancreatic and lung cancer cells; assay: MTT cell viability, summary for other tumor cells; type: cell-based; settings: Homo sapiens, 72 h, summary statement
# Method: as §3
# [10] = target: HDAC1 (Homo sapiens, UniProt Q13547); assay: HDAC1 enzyme inhibition; type: biochemical; settings: read-out: HDAC inhibition IC50 HDAC1
# Method: as §2
# [11] = system: GNS166 cells; assay: Cell cycle analysis by flow cytometry; type: cell-based, human; settings: for Cell subpopulation in Sub G1: non-treated 1.9%; for Cell subpopulation in G2/M phase: non-treated 25%
# Method: Cells were harvested using accutase and washed with PBS. 1·10^6 cells were fixed with 70% cold ethanol at −20 °C for at least 24 h, and incubated with 0.5% Triton X-100 and 25 µg/mL RNase A in PBS for 30 min at room temperature. Then, DNA was stained with […] propidium iodide for 15 min and samples were analyzed using a CytoFLEX flow cytometer (Beckman Coulter Co.).
# [12] = target: T3, recombinant hBChE (Homo sapiens, UniProt P06276); assay: BChE inhibition and kinetics, Ellman's colorimetric method; type: biochemical
# T3 construct: purchased Sigma-Aldrich
# Method: Similarly, Ellman’s colorimetric method was used to study the inhibitory capacity of the compound on ChEs. Enzyme solution containing either recombinant hAChE (Sigma-Aldrich) at 0.5 U/mL or hBChE (Sigma-Aldrich) at 0.25 U/mL was incubated with inhibitor solution containing 10 µM of DDI199 or reference compound and 0.3 mM of DTNB (Sigma-Aldrich) for 20 minutes at 37 °C. […] In addition, kinetic of enzyme inhibition was also studied by repeating the same protocol and using five different concentrations of the substrate and four different concentrations of the inhibitor. Results were represented in a Lineweaver-Burk plot using GraphPad Prism software, and the constant of inhibition (Ki) was estimated from the point at which the line cuts the x-axis at the secondary plot.
# T3 sequence (P06276 29-602): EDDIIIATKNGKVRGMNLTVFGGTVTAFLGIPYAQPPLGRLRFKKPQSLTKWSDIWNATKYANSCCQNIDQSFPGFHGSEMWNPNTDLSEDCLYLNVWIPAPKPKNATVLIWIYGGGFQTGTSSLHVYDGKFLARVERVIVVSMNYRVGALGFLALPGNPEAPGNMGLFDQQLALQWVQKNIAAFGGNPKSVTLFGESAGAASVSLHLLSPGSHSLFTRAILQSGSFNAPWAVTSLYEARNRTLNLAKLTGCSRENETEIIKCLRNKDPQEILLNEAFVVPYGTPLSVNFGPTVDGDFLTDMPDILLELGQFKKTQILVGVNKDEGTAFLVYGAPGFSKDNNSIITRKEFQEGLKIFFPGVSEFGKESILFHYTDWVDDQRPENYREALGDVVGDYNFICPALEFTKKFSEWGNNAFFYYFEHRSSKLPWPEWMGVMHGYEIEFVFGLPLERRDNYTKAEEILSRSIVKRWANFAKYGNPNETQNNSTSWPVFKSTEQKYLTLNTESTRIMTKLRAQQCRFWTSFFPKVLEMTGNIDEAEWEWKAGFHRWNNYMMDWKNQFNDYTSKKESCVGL
# T2 sequence (P27338 whole entry): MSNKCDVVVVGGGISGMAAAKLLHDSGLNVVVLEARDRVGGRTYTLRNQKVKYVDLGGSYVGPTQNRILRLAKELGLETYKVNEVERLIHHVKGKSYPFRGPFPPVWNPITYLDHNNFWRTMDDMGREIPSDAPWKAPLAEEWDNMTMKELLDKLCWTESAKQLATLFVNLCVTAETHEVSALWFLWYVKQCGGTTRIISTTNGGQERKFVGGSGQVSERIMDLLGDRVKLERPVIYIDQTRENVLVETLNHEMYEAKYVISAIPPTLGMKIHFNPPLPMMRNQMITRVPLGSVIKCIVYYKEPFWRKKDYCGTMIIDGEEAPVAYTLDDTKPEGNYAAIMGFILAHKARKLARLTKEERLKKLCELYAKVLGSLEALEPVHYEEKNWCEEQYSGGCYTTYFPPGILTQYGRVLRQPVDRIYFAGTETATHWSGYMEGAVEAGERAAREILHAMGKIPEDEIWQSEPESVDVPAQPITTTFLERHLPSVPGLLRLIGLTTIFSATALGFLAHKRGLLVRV
# Sequence of HDAC1 (Q13547 whole entry): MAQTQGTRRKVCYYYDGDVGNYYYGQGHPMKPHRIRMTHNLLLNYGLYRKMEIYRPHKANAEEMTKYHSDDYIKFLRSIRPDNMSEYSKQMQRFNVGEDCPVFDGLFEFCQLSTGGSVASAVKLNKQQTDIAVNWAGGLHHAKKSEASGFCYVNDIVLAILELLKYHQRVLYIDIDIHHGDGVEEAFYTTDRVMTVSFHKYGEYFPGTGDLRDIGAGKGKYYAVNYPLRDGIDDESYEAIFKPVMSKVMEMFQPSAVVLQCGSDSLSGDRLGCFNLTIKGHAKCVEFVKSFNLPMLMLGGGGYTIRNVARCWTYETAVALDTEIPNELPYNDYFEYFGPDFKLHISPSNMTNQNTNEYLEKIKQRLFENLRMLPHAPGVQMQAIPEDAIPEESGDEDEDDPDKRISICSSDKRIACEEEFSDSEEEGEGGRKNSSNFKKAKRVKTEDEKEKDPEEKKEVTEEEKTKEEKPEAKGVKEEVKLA
# T1 sequence (P21397 whole entry): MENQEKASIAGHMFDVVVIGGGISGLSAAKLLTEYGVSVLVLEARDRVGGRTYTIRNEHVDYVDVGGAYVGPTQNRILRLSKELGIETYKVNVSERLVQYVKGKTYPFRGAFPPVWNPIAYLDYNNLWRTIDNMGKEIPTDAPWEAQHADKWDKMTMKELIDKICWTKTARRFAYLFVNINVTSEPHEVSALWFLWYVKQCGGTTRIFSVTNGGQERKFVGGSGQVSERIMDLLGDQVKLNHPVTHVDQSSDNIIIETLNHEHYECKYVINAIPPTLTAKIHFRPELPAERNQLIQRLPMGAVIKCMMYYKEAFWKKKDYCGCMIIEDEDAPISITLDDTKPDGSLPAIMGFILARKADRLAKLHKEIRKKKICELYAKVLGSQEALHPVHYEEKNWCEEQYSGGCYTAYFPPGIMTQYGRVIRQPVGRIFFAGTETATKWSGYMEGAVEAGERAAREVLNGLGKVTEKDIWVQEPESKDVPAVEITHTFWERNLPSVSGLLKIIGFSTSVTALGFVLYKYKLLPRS
smiles,measurement,setting,value
C#CCN(Cc1cc2cc(OCCCN3CCCCC3)ccc2n1S(=O)(=O)c1ccccc1)C(=O)CCCCCCC(=O)NO [DDI199],Reduction in tumor growth versus controls,[1],~50%
same,Tumor weight at end-point,[1],significantly lower than the controls and also of SAHA
same,Mean final tumor volume,"[1]; 5 days on 2 days off, controls 800 mm^3",465 mm^3
same,pH3-positive cells,"[2]; GNS166, 1 µM",2%
same,Ki67 positive cells,"[2]; GNS166, 5 µM",almost blocking completely
same,pH3-positive cells,"[2]; GNS166, 5 µM",0.6%
same,pH3-positive cells,"[2]; GNS166, 10 µM",0.1%
same,Cleaved Caspase-3-positive cells,"[2]; GNS166, 1, 5 and 10 µM",increase
same,PARP-positive cells,"[2]; GNS166, 1, 5 and 10 µM",dose-dependent induction of apoptosis
same,inhibition at 10 µM,[3],35%
same,inhibition at 10 µM,"[4]; 10 µM compound, read-out: MAO-B inhibition percentage",55%
same,IC50,[4]; read-out: MAO-B IC50,14.9 µM
same,Expression of genes associated to neurotransmission/synapsis (q-RTPCR),[5],significantly higher
same,Expression of genes associated with cell cycle and DNA remodeling (q-RTPCR),[5],significantly reduced
same,IC50,[6],5 to 13 µM
same,pH3-positive cells,"[7]; GNS179, 1 µM",2.4%
same,pH3-positive cells,"[7]; GNS179, 5 µM",0.8%
same,pH3-positive cells,"[7]; GNS179, 10 µM",0.11%
same,Cleaved Caspase-3-positive cells,"[7]; GNS179, 1, 5 and 10 µM",increase
same,Caspase-3 positive cells,[8],markedly increased
same,p-H3 positive cells,[8],reduced
same,IC50,[9],< 3000 nM
same,IC50,[10],377 nM and 370 nM
same,Cell subpopulation in Sub G1,"[11]; GNS166, 5 µM",7.2%
same,Cell subpopulation in G2/M phase,"[11]; GNS166, 5 µM",35%
same,Cell subpopulation in Sub G1,"[11]; GNS166, 10 µM",11.9%
same,Cell subpopulation in G2/M phase,"[11]; GNS166, 10 µM",32%
same,IC50,[12],2540 nM
same,inhibition at 10 µM,"[12]; 10 µM compound, read-out: BChE inhibition percentage",75%
same,BChE type of inhibition,[12]; Lineweaver-Burk plot,mixed inhibition
same,Ki,[12]; from Lineweaver-Burk and secondary plots,870 nM
